Earlier results, collected in patent US20100041622A1, “Compositions containing aminoalkanes and aminoalkane derivatives” (priority 2008, published 2010).

What was measured:
[1] = system: vasoconstrictor activity (blood pressure of pithed animal subject); conditions: average epinephrine equivalent per 1 mg of sulfate derivative
vasoconstrictor activity = conditions: see U.S. Pat. No. 2,350,318
[2] = hydrophilic-lipophilic balance value, known values

## CC(C)C(C)CCN (centres unmarked) [1-amino-3,4-dimethylpentane]
[1]
  Epinephrine equivalent (micrograms (μg)) of 1 mg of the sulfate salt of the aminoalkane: 1.720 µg

## CC(C)CC(C)CCN (centres unmarked) [1-amino-3,5-dimethylhexane]
[1]
  Epinephrine equivalent (micrograms (μg)) of 1 mg of the sulfate salt of the aminoalkane: 0.660 µg

## CC(C)CCN [1-amino-3-methyl butane]
[1]
  Epinephrine equivalent (micrograms (μg)) of 1 mg of the sulfate salt of the aminoalkane: 0.238 µg

## CCC(C)CCN (centres unmarked) [1-amino-3-methyl pentane]
[1]
  Epinephrine equivalent (micrograms (μg)) of 1 mg of the sulfate salt of the aminoalkane: 0.193 µg

## CCCCC(C)CCN (centres unmarked) [1-amino-3-methylheptane]
[1]
  Epinephrine equivalent (micrograms (μg)) of 1 mg of the sulfate salt of the aminoalkane: 1.230 µg

## CCCC(C)CCN (centres unmarked) [1-amino-3-methylhexane]
[1]
  Epinephrine equivalent (micrograms (μg)) of 1 mg of the sulfate salt of the aminoalkane: 0.108 µg

## CC(C)CCCN [1-amino-4-methyl pentane]
[1]
  Epinephrine equivalent (micrograms (μg)) of 1 mg of the sulfate salt of the aminoalkane: 0.530 µg

## CCCCCCCN [1-amino-heptane]
[1]
  Epinephrine equivalent (micrograms (μg)) of 1 mg of the sulfate salt of the aminoalkane: 0.276 µg

## CCCCCCN [1-amino-hexane]
[1]
  Epinephrine equivalent (micrograms (μg)) of 1 mg of the sulfate salt of the aminoalkane: 0.766 µg

## CCCCCCCCN [1-amino-octane]
[1]
  Epinephrine equivalent (micrograms (μg)) of 1 mg of the sulfate salt of the aminoalkane: nil

## CCCCCN [1-amino-pentane]
[1]
  Epinephrine equivalent (micrograms (μg)) of 1 mg of the sulfate salt of the aminoalkane: 0.210 µg

## CC(C)CCC(C)C(C)N (centres unmarked) [2-amino-3,6-dimethylheptane]
[1]
  Epinephrine equivalent (micrograms (μg)) of 1 mg of the sulfate salt of the aminoalkane: 0.910 µg

## CCCCCC(O)C(C)N (centres unmarked) [2-amino-3-hydroxy-octane]
[1]
  Epinephrine equivalent (micrograms (μg)) of 1 mg of the sulfate salt of the aminoalkane: 0.122 µg

## CCCCC(C)C(C)N (centres unmarked) [2-amino-3-methylheptane]
[1]
  Epinephrine equivalent (micrograms (μg)) of 1 mg of the sulfate salt of the aminoalkane: 0.530 µg

## CCCC(C)C(C)N (centres unmarked) [2-amino-3-methylhexane]
[1]
  Epinephrine equivalent (micrograms (μg)) of 1 mg of the sulfate salt of the aminoalkane: 0.858 µg

## CC(N)CC(C)(C)C (centres unmarked) [2-amino-4,4-dimethylpentane]
[1]
  Epinephrine equivalent (micrograms (μg)) of 1 mg of the sulfate salt of the aminoalkane: 0.083 µg

## CC(N)CC(C)CC(C)(C)C (centres unmarked) [2-amino-4,6,6-trimethylheptane]
[1]
  Epinephrine equivalent (micrograms (μg)) of 1 mg of the sulfate salt of the aminoalkane: nil

## CC(C)CC(C)CC(C)N (centres unmarked) [2-amino-4,6-dimethylheptane]
[1]
  Epinephrine equivalent (micrograms (μg)) of 1 mg of the sulfate salt of the aminoalkane: 0.193 µg

## CCCCCCC(C)CC(C)N (centres unmarked) [2-amino-4-methyldecane]
[1]
  Epinephrine equivalent (micrograms (μg)) of 1 mg of the sulfate salt of the aminoalkane: 0.242 µg

## CCCC(C)CC(C)N (centres unmarked) [2-amino-4-methylheptane]
[1]
  Epinephrine equivalent (micrograms (μg)) of 1 mg of the sulfate salt of the aminoalkane: 0.786 µg

## CCC(C)CC(C)N (centres unmarked) [2-amino-4-methylhexane]
[1]
  Epinephrine equivalent (micrograms (μg)) of 1 mg of the sulfate salt of the aminoalkane: 3.520 µg
Vasoconstrictor activity
  vasoconstrictor activity compared to ephedrine or amphetamine: greater vasoconstrictor activity

## CCCCC(C)CC(C)N (centres unmarked) [2-amino-4-methyloctane]
[1]
  Epinephrine equivalent (micrograms (μg)) of 1 mg of the sulfate salt of the aminoalkane: 0.475 µg

## CC(C)CC(C)N (centres unmarked) [2-amino-4-methylpentane]
[1]
  Epinephrine equivalent (micrograms (μg)) of 1 mg of the sulfate salt of the aminoalkane: 0.840 µg

## CCC(CC)CCC(C)N (centres unmarked) [2-amino-5-ethylheptane]
[1]
  Epinephrine equivalent (micrograms (μg)) of 1 mg of the sulfate salt of the aminoalkane: 0.358 µg

## CCC(C)CCC(C)N (centres unmarked) [2-amino-5-methylheptane]
[1]
  Epinephrine equivalent (micrograms (μg)) of 1 mg of the sulfate salt of the aminoalkane: 0.980 µg

## CC(C)CCC(C)N (centres unmarked) [2-amino-5-methylhexane]
[1]
  Epinephrine equivalent (micrograms (μg)) of 1 mg of the sulfate salt of the aminoalkane: 1.560 µg

## C=C(C)CCC(C)N (centres unmarked) [2-amino-5-methylhexene-5]
[1]
  Epinephrine equivalent (micrograms (μg)) of 1 mg of the sulfate salt of the aminoalkane: 0.504 µg

## CC(C)CCCC(C)N (centres unmarked) [2-amino-6-methylheptane]
[1]
  Epinephrine equivalent (micrograms (μg)) of 1 mg of the sulfate salt of the aminoalkane: 2.620 µg

## CC(C)=CCCC(C)N (centres unmarked) [2-amino-6-methylheptene-5]
[1]
  Epinephrine equivalent (micrograms (μg)) of 1 mg of the sulfate salt of the aminoalkane: 0.391 µg

## C=CCCC(C)N (centres unmarked) [2-amino-hexene-5]
[1]
  Epinephrine equivalent (micrograms (μg)) of 1 mg of the sulfate salt of the aminoalkane: 0.193 µg

## CCCCCCC(C)N (centres unmarked) [2-amino-octane]
[1]
  Epinephrine equivalent (micrograms (μg)) of 1 mg of the sulfate salt of the aminoalkane: 0.510 µg

## CCCC(C)N (centres unmarked) [2-amino-pentane]
[1]
  Epinephrine equivalent (micrograms (μg)) of 1 mg of the sulfate salt of the aminoalkane: 0.395 µg

## CCCCCC(C)N (centres unmarked) [2-aminoheptane]
[1]
  Epinephrine equivalent (micrograms (μg)) of 1 mg of the sulfate salt of the aminoalkane: 3.100 µg

## CCCCC(C)N (centres unmarked) [2-aminohexane]
[1]
  Epinephrine equivalent (micrograms (μg)) of 1 mg of the sulfate salt of the aminoalkane: 0.901 µg

## CCC(N)CCC(C)C (centres unmarked) [3-amino-6-methylheptane]
[1]
  Epinephrine equivalent (micrograms (μg)) of 1 mg of the sulfate salt of the aminoalkane: nil

## CCCCCC(N)CC (centres unmarked) [3-amino-octane]
[1]
  Epinephrine equivalent (micrograms (μg)) of 1 mg of the sulfate salt of the aminoalkane: 0.142 µg

## CCCCC(N)CC (centres unmarked) [3-aminoheptane]
[1]
  Epinephrine equivalent (micrograms (μg)) of 1 mg of the sulfate salt of the aminoalkane: 0.149 µg

## CC(C)CC(N)CC(C)C [4-amino-2,6-dimethylheptane]
[1]
  Epinephrine equivalent (micrograms (μg)) of 1 mg of the sulfate salt of the aminoalkane: nil

## CCCC(N)CCC [4-aminoheptane]
[1]
  Epinephrine equivalent (micrograms (μg)) of 1 mg of the sulfate salt of the aminoalkane: 0.048 µg

## CCCCCCCCCCCCCCCCCC(=O)OCC(O)CO (centres unmarked) [Glyceryl Stearate]
[2]
  HLB: 3.5

## Nonoxynol-9
[2]
  HLB: 12.9

## PEG-4 lauryl ether
[2]
  HLB: 9.7

## PEG-100 Stearate
[2]
  HLB: 18.8

## Phosphatidylcholine
[2]
  HLB: 7.6

## Sorbitan Palmitate
[2]
  HLB: 6.7

## Sorbitan monostearate
[2]
  HLB: 4.7
